Test results: patent US20120309734A1, “COMBRETASTATIN DERIVATIVES AND USES THEREFOR” (priority 2009, published 2012)
Read-outs that look alike come from different tables or passages of the source.

What was measured:
HL-60 parental = assay: Alamar Blue cell viability assay; assay type: cell-based; conditions: Homo sapiens, 72 h
Experimental: (§1) Cells were exposed to multiple concentrations of the indicated compound for 72 h. Cell viability was assessed using the Alamar blue assay and respective IC50 values were calculated. The resistance factor (RF) was calculated by dividing the IC50 of the resistant cell line/IC50 of the parental cell line.
(§2) A2780-parental and A2780-ADR resistant cells were provided by the Beatson Institute of Cancer Research, Glasgow. […] All cells were cultured in RPMI-1640 Glutamax medium supplemented with 10% FCS media, 100 units/ml penicillin and 100 μg/mIstreptomycin. Cells were maintained at 37° C. in 5% CO2 in a humidified incubator.
(§3) The reduction of Alamar Blue is proportional to the number of viable cells. Cells (200 μl) were plated in triplicate in a 96-well plates (K562, 100,000/ml; HL-60, 300,000/ml; A-2780 50,000/ml). A-2780 cells were plated 24 h prior to treatment. Suspension cells were plated in the log phase of growth and treated immediately. The cells were then treated with either medium alone, vehicle (1% ethanol v/v or 0.1% DMSO v/v) or with a range of concentrations of drug [0.001-10 μM]. After 72 h, Alamar Blue was added to each well (10% of final volume) and fluorescence was read using a 96-well fluorometer with excitation at 530 nm and emission of 590 nm. The blank solution consisted of medium and Alamar Blue and the blank solution was used to calibrate the spectrophotometer to zero absorbance. The relative cell viability (%) related to control wells and was calculated by [A]test/[A]control×100 where [A]test is the absorbance of the drug treated cells and [A]control the absorbance of the vehicle control treated cells. Dose response curves were plotted and IC50 values (concentration of drug resulting in 50% reduction in cell survival) were obtained using the commercial software package Prism (GraphPad Software, Inc., La Jolla, USA). Experiments were performed in triplicate on at least three separate occasions.

HL-60-BCRP = assay: Alamar Blue cell viability assay
Experimental: (§4) Three drug resistant cell lines and respective parental cell lines were assessed. […] Western blot analysis confirmed the overexpression of p-glycoprotein and BCRP in respective cell lines.
as §1
(§5) All cells were cultured in RPMI-1640 Glutamax medium supplemented with 10% FCS media, 100 units/ml penicillin and 100 μg/mIstreptomycin. Cells were maintained at 37° C. in 5% CO2 in a humidified incubator.
as §3

[1] = test system: human chronic myeloid leukaemia K562 cells; assay: MTT cell viability assay; assay type: cell-based; conditions: read-out: Inhibition of cell viability (IC50 value, nM) K562
[2] = test system: normal mouse mammary epithelial cells; assay: Viability of normal mammary epithelial cells; assay type: cell-based; conditions: 72 hr treatment
A2780-ADR (PGP) = assay: Alamar Blue cell viability assay
Experimental: as §4, §1, §5, §3

p-glycoprotein = target: T1, p-glycoprotein (Homo sapiens, UniProt P08183); assay: Anti-proliferative effects in multi-drug resistant cells, conclusion on efflux; assay type: cell-based; conditions: concluded from resistance factors
T1 construct: HL-60-MDR (overexpress p-glycoprotein); endogenous in cells; host or cells: HL-60-MDR, A2780-ADR
Experimental: as §4, §1

HL-60-MDR(PGP) = assay: Alamar Blue cell viability assay; assay type: cell-based, human
Experimental: as §4, §1, §5, §3

[3] = test system: human promyelocytic leukaemia HL-60 cells; assay: MTT cell viability assay; assay type: cell-based; conditions: read-out: Inhibition of cell viability (IC50 value, nM) HL-60
[4] = test system: primary CML cells (BCR-ABL-positive); assay: Apoptosis in ex vivo CML cells, annexin V staining; assay type: cell-based, human; conditions: 72 h
Source text: This study is the first pre-clinical evaluation of combretastatins in the treatment of chemotherapy naive and patients with acquired imatinib mesylate resistance (refractory or relapsed disease despite adequate dose and duration). Imatinib mesylate is the first line treatment in BCR-ABL-positive CML chemotherapy. BCR-ABL, a constitutively active protein tyrosine kinase is a product of the Philadelphia chromosome (Ph) translocation t(9;22) and plays a central role in the pathogenesis of CML. […] All cells were treated with a clinically achievable concentration of imatinib mesylate (indicated as STI in FIG. 3) [250 nM]. […] The percentage apoptosis was determined by flow cytometric analysis of annexin-V stained cells.
The percentage of apoptosis in ex-vivo CML cells was determined by annexin V staining. […] Cells were collected by centrifugation at 400×g for 5 min and resuspended in anti-CD-45 diluted 1:50 in RPMI medium. Following a 10 min incubation in the dark at room temperature, cells were centrifuged and washed in Annexin binding buffer (Biosource, Nivelles, Belgium). Cells were again centrifuged and resuspended in Annexin-V-FITC (IQ products, Netherlands) diluted in Annexin binding buffer (1:50). Samples were next incubated in the dark on ice for 15 min. Annexin binding buffer (1 ml) was added to each sample. Samples were collected by centrifugation and resuspended in 0.5 ml of Annexin binding buffer. Cells were read immediately by flow cytometry and analysed by Cellquest software. CML cells were selected and gated based on their low to medium side scatter and low CD45 expression.

A2780-parental = assay: Alamar Blue cell viability assay; assay type: cell-based; conditions: 72 h
Experimental: as §1, §2, §3

[5] = test system: normal mouse mammary epithelial cells; assay: Viability of normal mammary epithelial cells; assay type: cell-based; conditions: for Percent viability of normal mammary epithelial cells compared to control: 10 nM, 72 hr treatment; for effects on normal mammary epithelial cells: up to 10 μM
Experimental: The maximum toxicity elicited by these drugs on normal cells at a concentration of 10 nM was only 8% (see Table 4).

[6] = In vitro stability in plasma; assay type: in vitro ADME; conditions: human plasma
[7] = test system: MCF-7 breast cancer cell line; assay: Antiproliferation study, MTT cell viability assay; assay type: cell-based; conditions: Homo sapiens
Experimental: All assays were performed in triplicate for the determination of mean values reported. Compounds were assayed as the free bases isolated from reaction. The human breast tumour cell line MCF-7 was cultured in Eagles minimum essential medium in a […] atmosphere with 10% fetal bovine serum, 2 mM L-glutamine and 100 μg/mL penicillin/streptomycin. The medium was supplemented with 1% non-essential amino acids. MDA-MB-231 cells were maintained in Dulbecco's Modified Eagle's medium (DMEM), supplemented with 10% (v/v) Fetal bovine serum, 2 mM L-glutamine and 100 μg/mL penicillin/streptomycin (complete medium). Cells were trypsinised and seeded at a density of 2.5×10^4 cells/ml in a 96-well plate and incubated at 37° C., […] atmosphere for 24 h. […] Control wells contained the equivalent volume of the vehicle ethanol (1% v/v). The culture medium was then removed and the cells washed with 100 μL phosphate buffered saline (PBS) and 50 μL MTT added, to reach a final concentration of 1 mg/mL MTT added. Cells were incubated for 2 h in darkness at 37° C. At this point solubilization was begun through the addition of 200 μL DMSO and the cells maintained at room temperature in darkness for 20 min to ensure thorough colour diffusion before reading the absorbance. The absorbance value of control cells (no added compound) was set to 100% cell viability and from this graphs of absorbance versus cell density per well were prepared to assess cell viability and from these, graphs of percentage cell viability versus concentration of subject compound added were drawn.

[8] = MCF7, 72 h, antiproliferative activity, MTT, 72 h, read-out: IC50 (μM) MCF-7 cell line

T1 sequence (P08183 whole entry): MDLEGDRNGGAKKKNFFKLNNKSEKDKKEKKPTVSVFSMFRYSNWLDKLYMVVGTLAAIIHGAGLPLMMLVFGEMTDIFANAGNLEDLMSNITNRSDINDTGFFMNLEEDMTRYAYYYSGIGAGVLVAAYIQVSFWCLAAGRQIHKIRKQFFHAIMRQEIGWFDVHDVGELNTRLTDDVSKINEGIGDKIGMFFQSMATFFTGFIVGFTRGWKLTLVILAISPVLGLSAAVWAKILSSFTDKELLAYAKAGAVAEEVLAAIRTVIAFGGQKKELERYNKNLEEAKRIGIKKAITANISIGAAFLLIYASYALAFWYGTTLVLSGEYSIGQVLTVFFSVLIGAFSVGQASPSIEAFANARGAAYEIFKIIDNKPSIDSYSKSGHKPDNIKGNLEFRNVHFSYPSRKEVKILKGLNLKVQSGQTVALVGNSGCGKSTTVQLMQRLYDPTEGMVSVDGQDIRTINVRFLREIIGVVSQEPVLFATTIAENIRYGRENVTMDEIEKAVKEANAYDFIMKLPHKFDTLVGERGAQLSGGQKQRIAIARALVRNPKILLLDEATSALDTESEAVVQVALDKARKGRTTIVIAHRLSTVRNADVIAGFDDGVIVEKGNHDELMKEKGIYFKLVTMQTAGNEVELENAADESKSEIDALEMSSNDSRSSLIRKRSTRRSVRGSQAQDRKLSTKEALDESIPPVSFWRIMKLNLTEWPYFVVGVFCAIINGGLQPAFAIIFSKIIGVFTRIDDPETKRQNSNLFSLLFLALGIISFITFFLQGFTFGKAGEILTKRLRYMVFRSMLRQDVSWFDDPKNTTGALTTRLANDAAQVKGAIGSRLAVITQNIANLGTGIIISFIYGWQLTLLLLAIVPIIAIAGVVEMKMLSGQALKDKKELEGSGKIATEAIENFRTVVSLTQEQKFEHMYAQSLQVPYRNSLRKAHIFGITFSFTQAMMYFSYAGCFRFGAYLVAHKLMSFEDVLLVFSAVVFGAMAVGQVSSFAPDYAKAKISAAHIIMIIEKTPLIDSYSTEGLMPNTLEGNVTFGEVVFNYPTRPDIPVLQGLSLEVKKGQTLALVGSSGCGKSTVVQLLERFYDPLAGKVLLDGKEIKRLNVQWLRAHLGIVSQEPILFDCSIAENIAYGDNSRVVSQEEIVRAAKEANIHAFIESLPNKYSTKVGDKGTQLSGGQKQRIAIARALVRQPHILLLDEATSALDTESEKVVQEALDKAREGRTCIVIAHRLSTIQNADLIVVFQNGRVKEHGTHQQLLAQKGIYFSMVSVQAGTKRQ

Structure (SMILES)	IC50 [1]	Percent viability of normal mammary epithelial cells compared to control ([2]; 1 nM)	Percent viability of normal mammary epithelial cells compared to control ([2]; 100 nM)	Percent viability of normal mammary epithelial cells compared to control ([2]; 1 μM)	Percent viability of normal mammary epithelial cells compared to control ([2]; 10 μM)	IC50 [3]	Percent viability of normal mammary epithelial cells compared to control [5]	effects on normal mammary epithelial cells [5]	IC50 [7, 8]	other results
COc1ccc(/C=C\c2cc(OC)c(OC)c(OC)c2)cc1O [CA-4, combretastatin A-4, reference compound]	3.8 nM	98%	74.8%	74.7%	75.0%	4.1 nM	92%	minimal effects		IC50 (HL-60 parental): 4.5 nM; IC50 (HL-60-BCRP; Homo sapiens, 72 h): 3.5 nM; RF (HL-60-BCRP; IC50 HL-60-BCRP / IC50 HL-60 parental): 0.8; IC50 (A2780-ADR (PGP); A2780 ADR, 72 h): 6.8 nM; RF (A2780-ADR (PGP); IC50 A2780-ADR (PGP) / IC50 A2780-parental): 0.9; substrate for the p-glycoprotein (p-glycoprotein): poor substrates for the p-glycoprotein; IC50 (HL-60-MDR(PGP); Homo sapiens, HL60/MDR, 72 h): 3.3 nM; RF (HL-60-MDR(PGP); IC50 HL-60-MDR(PGP) / IC50 HL-60 parental): 0.73; apoptosis induction compared with imatinib mesylate ([4]; 250 nM each, patient samples): more effective inducers of apoptosis than imatinib mesylate; apoptosis in primary CML cells ([4]; 250 nM, chemotherapy naïve (4 samples) and imatinib mesylate resistant (2 samples)): induced apoptosis; IC50 (A2780-parental): 7.5 nM
COc1ccc(C2C(Oc3ccccc3)C(=O)N2c2cc(OC)c(OC)c(OC)c2)cc1O (stereo not shown) [Compound 1, 4-(3-Hydroxy-4-methoxy-phenyl)-3-phenoxy-1-(3,4,5-trimethoxy-phenyl)-azetidin-2-one]									0.038 µM	half-life [6]: 35 h
C=CC1C(=O)N(c2cc(OC)c(OC)c(OC)c2)C1c1ccc(OC)c(O)c1 (stereo not shown) [Compound 2, 4-(3-Hydroxy-4-methoxy-phenyl)-1-(3,4,5-trimethoxy-phenyl)-3-vinyl-azetidin-2-one]	26.6 nM	93.1%	74.4%	73.0%	73.8%	17.1 nM	92.3%	minimal effects	0.0014 µM	IC50 ([7]; MCF7, MTT cell viability assay, read-out: Inhibition of cell viability (IC50 value, nM) MCF-7): 0.0008 to 0.0031 µM
